What was measured:
[1] = system: sympathetic neurons; conditions: cited from earlier work
[2] = system: kidney norepinephrine (NE); design: species or system porcine; conditions: pig, in vivo
[3] = system: renal arteries; conditions: pig, in vivo

Compound | concentration accumulated within neurons in vivo [1] | average NE level in renal cortex tissue [2] | reduction in renal cortex NE [2] | perivascular indications of denervation (histology) [3]
N=C(N)NCCN1CCCCCCC1 [guanethidine, Guanidine, [2-(hexahydro-1(2H)-azocinyl)ethyl]-] | 500 to 1000 µM |  |  | 
Guanidine, [2-(hexahydro-1(2H)-azocinyl)ethyl]-, sulfate (1:1) [Guanethidine monosulfate] |  | 64 | 86% | nerve degeneration characterized by hypervacuolization and eosinophilia
